From ChEMBL document CHEMBL3400121, “Design and synthesis of novel 1,2,3-triazole-pyrimidine-urea hybrids as potential anticancer agents” (Bioorg Med Chem Lett, 2015)

Key:
[1] = Anticancer activity against mouse B16F10 cells assessed as inhibition of proliferation after 72 hrs by MTT assay; type: functional, cell-based; details: B16-F10, 72 h
MCF7 = experiment: Anticancer activity against human MCF7 cells assessed as inhibition of proliferation after 72 hrs by MTT assay; type: functional, cell-based; details: MCF7, 72 h
[2] = Anticancer activity against human EC109 cells assessed as inhibition of proliferation after 72 hrs by MTT assay; type: functional, cell-based; details: ECa-109, 72 h
MGC-803 = experiment: Anticancer activity against human MGC803 cells assessed as inhibition of proliferation after 72 hrs by MTT assay; type: functional, cell-based; details: MGC-803, 72 h
[3] = Cytotoxicity against human GES-1 cells assessed as inhibition of proliferation after 72 hrs by MTT assay; type: cell-based; details: GES1, 72 h

SMILES	IC50 [1] [µM]	IC50 (MCF7) [µM]	IC50 [2] [µM]	IC50 (MGC-803) [µM]	IC50 [3] [µM]
Cc1ccccc1Nc1nc(SCc2cn(CC(=O)NC(=O)Nc3ccccn3)nn2)nc(-c2ccc(C(C)C)cc2)c1C#N	18.6	> 64	7.23	19	–
COc1cc(-c2nc(SCc3cn(CC(=O)NC(=O)Nc4ccccn4)nn3)nc(Nc3cccc(C(F)(F)F)c3)c2C#N)cc(OC)c1OC	24.4	8.14	> 64	8.21	> 64
Cc1ccc(-c2nc(SCc3cn(CC(=O)NC(=O)Nc4ccccn4)nn3)nc(Nc3cccc(Cl)c3)c2C#N)cc1	7.58	14.9	25.6	7.89	–
CC(C)c1ccc(-c2nc(SCc3cn(CC(=O)NC(=O)Nc4ccccn4)nn3)nc(Nc3cccc([N+](=O)[O-])c3)c2C#N)cc1	26.4	25.9	31.3	> 64	–
CC(C)c1ccc(-c2nc(SCc3cn(CC(=O)NC(=O)Nc4ccccn4)nn3)nc(Nc3ccc(Cl)cc3)c2C#N)cc1	0.86	> 64	11.2	> 64	–
Cc1ccc(Nc2nc(SCc3cn(CC(=O)NC(=O)Nc4ccccn4)nn3)nc(-c3ccccc3)c2C#N)cc1	3.3	> 64	24.6	7.87	–
COc1ccccc1Nc1nc(SCc2cn(CC(=O)NC(=O)Nc3ccccn3)nn2)nc(-c2ccc(C(C)C)cc2)c1C#N	34.6	19.3	8.96	> 64	–
COc1ccccc1Nc1nc(SCc2cn(CC(=O)NC(=O)Nc3ccccn3)nn2)nc(-c2ccc(C)cc2)c1C#N	8.58	19.7	7.85	7.96	> 64
CC(C)c1ccc(-c2nc(SCc3cn(CC(=O)NC(=O)Nc4ccccn4)nn3)nc(Nc3ccccc3Cl)c2C#N)cc1	6.79	43.7	23.4	19.7	–
CC(C)c1ccc(Nc2nc(SCc3cn(CC(=O)NC(=O)Nc4ccccn4)nn3)nc(-c3ccc(Cl)cc3)c2C#N)cc1	1.59	39.9	> 64	16.9	–
CC(C)c1ccc(Nc2nc(SCc3cn(CC(=O)NC(=O)Nc4ccccn4)nn3)nc(-c3ccc(C(C)C)cc3)c2C#N)cc1	4.38	28.6	2.49	15.8	–
COc1cc(-c2nc(SCc3cn(CC(=O)NC(=O)Nc4ccccn4)nn3)nc(Nc3cccc(Cl)c3)c2C#N)cc(OC)c1OC	1.42	24	> 64	15.4	–
COc1ccc(Nc2nc(SCc3cn(CC(=O)NC(=O)Nc4ccccn4)nn3)nc(-c3ccc(C(C)C)cc3)c2C#N)cc1	0.36	> 64	5.42	> 64	–
CC(C)c1ccc(-c2nc(SCc3cn(CC(=O)NC(=O)Nc4ccccn4)nn3)nc(Nc3ccccc3F)c2C#N)cc1	8.38	> 64	15.5	> 64	–
COc1ccc(Nc2nc(SCc3cn(CC(=O)NC(=O)Nc4ccccn4)nn3)nc(-c3ccc(C)cc3)c2C#N)cc1	8.75	23.4	5.87	1.7	35.7
CC(C)c1ccc(-c2nc(SCc3cn(CC(=O)NC(=O)Nc4ccccn4)nn3)nc(Nc3ccccc3O)c2C#N)cc1	16.1	> 64	7.38	16.4	–

SMILES	IC50 [1] [µM]	IC50 (MCF7) [µM]	IC50 [2] [µM]	IC50 (MGC-803) [µM]	IC50 [3] [µM]
CC(C)c1ccc(-c2nc(SCc3cn(CC(=O)NC(=O)Nc4ccccn4)nn3)nc(Nc3ccccc3)c2C#N)cc1	14.3	> 64	> 64	15.8	–
Cc1ccc(Nc2nc(SCc3cn(CC(=O)NC(=O)Nc4ccccn4)nn3)nc(-c3ccc(C)cc3)c2C#N)cc1	1.01	39.6	> 64	9.89	–
COc1cc(-c2nc(SCc3cn(CC(=O)NC(=O)Nc4ccccn4)nn3)nc(Nc3ccc(Cl)cc3)c2C#N)cc(OC)c1OC	1.11	45.1	> 64	17.5	–
CC(C)c1ccc(-c2nc(SCc3cn(CC(=O)NC(=O)Nc4ccccn4)nn3)nc(Nc3ccc(F)cc3)c2C#N)cc1	7.25	> 64	> 64	17.5	–
Cc1ccc(-c2nc(SCc3cn(CC(=O)NC(=O)Nc4ccccn4)nn3)nc(Nc3cccc(C(F)(F)F)c3)c2C#N)cc1	9.58	6.12	32.3	7.58	–
COc1cc(-c2nc(SCc3cn(CC(=O)NC(=O)Nc4ccccn4)nn3)nc(Nc3ccc(C(C)C)cc3)c2C#N)cc(OC)c1OC	1.21	30.9	> 64	35.5	–
CC(C)c1ccc(-c2nc(SCc3cn(CC(=O)NC(=O)Nc4ccccn4)nn3)nc(Nc3cccc(C(F)(F)F)c3)c2C#N)cc1	1.7	8.62	24.2	> 64	–
Cc1ccc(Nc2nc(SCc3cn(CC(=O)NC(=O)Nc4ccccn4)nn3)nc(-c3ccc(C(C)C)cc3)c2C#N)cc1	3.06	> 64	6.7	3.36	> 64
Cc1ccc(Nc2nc(SCc3cn(CC(=O)NC(=O)Nc4ccccn4)nn3)nc(-c3ccc(Br)cc3)c2C#N)cc1	8.16	14.4	7.92	13.9	–
Cc1cccc(Nc2nc(SCc3cn(CC(=O)NC(=O)Nc4ccccn4)nn3)nc(-c3ccc(C(C)C)cc3)c2C#N)c1	1.65	> 64	7.32	25.3	–
CC(C)c1ccc(-c2nc(SCc3cn(CC(=O)NC(=O)Nc4ccccn4)nn3)nc(Nc3cccc(Cl)c3)c2C#N)cc1	1.13	18	13.3	> 64	–
CC(C)c1ccc(Nc2nc(SCc3cn(CC(=O)NC(=O)Nc4ccccn4)nn3)nc(-c3ccc(Br)cc3)c2C#N)cc1	0.042	30.6	> 64	15.6	> 64
Cc1ccc(-c2nc(SCc3cn(CC(=O)NC(=O)Nc4ccccn4)nn3)nc(Nc3ccc(C(C)C)cc3)c2C#N)cc1	0.035	> 64	7.45	19.3	> 64
N#Cc1c(Nc2cccc(C(F)(F)F)c2)nc(SCc2cn(CC(=O)NC(=O)Nc3ccccn3)nn2)nc1-c1ccc(Br)cc1	4.55	3.11	2.96	3.6	38.7
O=c1[nH]cc(F)c(=O)[nH]1 [FLUOROURACIL]	1.43	9.12	11.6	8.43	–
Cc1ccc(Nc2nc(SCc3cn(CC(=O)NC(=O)Nc4ccccn4)nn3)nc(-c3ccc(Cl)cc3)c2C#N)cc1	1.32	27	13.1	24	–
